Data set [1] is described as follows: Pharmacokinetic study in rats after oral administration of Epimedium extract (HPLC-MS/MS of plasma). It is filed as in vivo, Male Sprague-Dawley rats. The note with it: rat plasma, single oral dose of Epimedium extract 10 g/kg; for AUC(0-inf) / half-life / AUC / MRT / MRT inf: male, Sprague-Dawley; for AUC(0-inf) / half-life / AUC / MRT / MRT inf / Cmax1 / Tmax1: n = 6; for AUC: read-out: AUC(0-tn); for MRT: read-out: MRT(0-tn); for MRT inf: read-out: MRT(0-∞); for Cmax2 / Tmax2: n = 6, second peak. The protocol: An Agilent 1200 Series HPLC system, which consisted of a binary pump (G1312A), an auto-sampler (G1367B), an online degasser unit (G1322A), along with temperature-controlled column compartment (G1316A), was used for the analysis. The twelve compounds and IS were separated on a CORTECS®C18 column (4.6 mm × 150 mm, 2.7 μm) maintained at 30 °C with the mobile phase consisted of acetonitrile (A) and 0.1% (v/v) formic acid (B). The flow rate was 0.3 mL/min. The gradient elution was as follows: 0–4 min, 20–50% A; 4–5 min, 50–60% A; 5–15 min, 60–70% A. The injection volume was 5 μL.
The tandem mass spectrometry was performed on a triple-quadrupole mass spectrometer equipped with an electrospray ionization (ESI) source (Agilent G6430A system). Nitrogen gas served as the nebulizer, drying, and collision gas. Analytes were monitored by SRM in negative mode with the electrospray ionization parameters optimized as follows: ion spray voltage of −4000 V, capillary temperature of 350 °C, auxiliary nitrogen pressure of 20 psi, drying gas flow of 9 L/min. The mass spectrometric parameters of precursor ion, product ion, collision energy (CE) and fragmentor (Frag) for analytes are listed in Table 6. Both the collision energy and the fragmentor were optimized for each compound by infusion of the standard solutions of methanol to mass spectrometry directly. The peak in sample was recognized as the target compound if the retention time, precursor ion, and product ion are same as the stand. For each analyte, the most abundant product ion was chosen for quantification. All analytes were quantified using the 6-point calibration curve. The peak areas were used for quantification following an internal algorithm. For each batch of samples processed and analyzed, the determined concentration of each compound in the QC samples, as quantified by the standard curves, was required to fall within ±15% of the known concentration for the data to be included in the final analysis.
Male Sprague-Dawley rats (220 ± 10) g were obtained from the Beijing HUAFUKANG Bioscience Co., Inc. (Beijing, China). Six male rats were acclimatized to the facilities for a week and fasted for 12 h, but allowed free access to water, before dosing. The Epimedium extract was suspended in 0.5% carboxymethyl cellulose sodium (CMC-Na) aqueous solution and given to each rat by oral administration at a single dose of 10 g/kg. Blood samples (250 μL) were collected from the fossa orbitalis of rats at 0 (before dosing), 0.03, 0.08, 0.17, 0.25, 0.5, 1, 2, 4, 6, 8, 10, 12 and 24 h after dosing. Then, the blood samples were centrifuged at 6000 g for 10 min to obtain the plasma, and the plasma was removed to another EP tube and frozen at −70 °C until analysis. The rat plasma concentration–time data of 12 analytes were computed by the software “Drug and Statistics 1.0” (DAS 1.0)

On the set-up of data set [2]: method as in PMID 20705408. The note with it: previous reports ref 19; cited from earlier work.

The text below walks through data of article PMC6100475, “Development and Validation of a HPLC-MS/MS Method for Simultaneous Determination of Twelve Bioactive Compounds in Epimedium: Application to a Pharmacokinetic Study in Rats” (Molecules : A Journal of Synthetic Chemistry and Natural …, 2018).

`CC(C)=CCc1c(O)cc(O)c2c(=O)c(OC3OC(C)C(O)C(O)C3O)c(-c3ccc(O)cc3)oc12` (stereo not shown) [baohuoside II]: in data set [1], the AUC(0-inf) is 355 ± 144 ng·h/mL, the half-life was 6.93 ± 2.94 h, the AUC was determined as 246 ± 133 ng·h/mL and the MRT was 11.5 ± 1.99 h. For the same compound, in data set [1], the MRT inf is 16.5 ± 3.06 h, the Cmax1 is recorded as 6.87 ± 4.58 ng/mL, the Tmax1 was 0.18 ± 0.03 h and the Cmax2 was 29.17 ± 7.70 ng/mL. In addition, in data set [1], the Tmax2 was determined as 10.67 ± 1.03 h.
As for `COc1ccc(-c2oc3c(CC=C(C)C)c(O)cc(O)c3c(=O)c2O[C@@H]2O[C@@H](C)[C@H](O)[C@@H](O)[C@H]2O)cc1` [baohuoside I], in data set [1], the AUC(0-inf) is 1680 ± 599 ng·h/mL, the half-life was 13.2 ± 4.8 h, the AUC stood at 1450 ± 616 ng·h/mL and the MRT was 10.8 ± 1.21 h. Also, in data set [1], the MRT inf turned out to be 15.7 ± 4.1 h, the Cmax1 amounted to 65.20 ± 33.56 ng/mL, the Tmax1 came to 0.38 ± 0.14 h and the Cmax2 is 170.73 ± 66.97 ng/mL. Besides, in data set [1], the Tmax2 was 10.00 ± 1.79 h. Also, in data set [2], the “bimodal phenomenon of plasma concentration–time curve” value is recorded as “bimodal phenomenon”.
As to `O=C(/C=C/c1ccc(O)c(O)c1)O[C@@H]1C[C@](O)(C(=O)O)C[C@@H](O)[C@H]1O` [chlorogenic acid], in data set [1], the AUC(0-inf) was 886 ± 377 ng·h/mL, the half-life is 0.45 ± 0.3 h, the exposure (AUC) came out at 880 ± 365 ng·h/mL and the MRT stood at 3.85 ± 1.28 h. For the same compound, in data set [1], the MRT inf was 3.91 ± 1.32 h, the Cmax1 was determined as 540.28 ± 225.18 ng/mL and the Tmax1 was 0.19 ± 0.05 h.
Regarding `O=C(/C=C/c1ccc(O)c(O)c1)O[C@H]1[C@H](O)C[C@](O)(C(=O)O)C[C@H]1O` [cryptochlorogenic acid], in data set [1], the AUC(0-inf) was 404 ± 169 ng·h/mL, the half-life is 0.53 ± 0.24 h, the AUC is 398 ± 171 ng·h/mL and the MRT is 3.75 ± 1.91 h. For the same compound, in data set [1], the MRT inf was determined as 3.82 ± 2.48 h, the Cmax1 amounted to 269.77 ± 114.07 ng/mL and the Tmax1 came to 0.19 ± 0.05 h.
Turning to `COc1ccc(-c2oc3c(CC=C(C)C)c(OC4OC(CO)C(O)C(O)C4O)cc(O)c3c(=O)c2OC2OC(C)C(O)C(O)C2OC2OC(CO)C(O)C(O)C2O)cc1` (stereo not shown) [epimedin A], in data set [1], the AUC(0-inf) was 600 ± 219 ng·h/mL, the half-life was 12.5 ± 6.85 h, the AUC amounted to 550 ± 199 ng·h/mL and the MRT came to 10.8 ± 2.33 h. Besides, in data set [1], the MRT inf came to 14.1 ± 3.98 h, the Cmax1 is given as 82.79 ± 7.61 ng/mL, the Tmax1 came out at 0.22 ± 0.04 h and the Cmax2 was found to be 59.34 ± 26.24 ng/mL. In addition, the Tmax2 in data set [1] is given as 9.33 ± 0.94 h. Further, the “bimodal phenomenon of plasma concentration–time curve” value in data set [2] was “bimodal phenomenon”.
With `COc1ccc(-c2oc3c(CC=C(C)C)c(OC4OC(CO)C(O)C(O)C4O)cc(O)c3c(=O)c2OC2OC(C)C(O)C(O)C2OC2OCC(O)C(O)C2O)cc1` (stereo not shown) [epimedin B], in data set [1], the AUC(0-inf) stood at 1070 ± 212 ng·h/mL, the half-life is 3.64 ± 3.68 h, the AUC was found to be 946 ± 250 ng·h/mL and the MRT stood at 6.98 ± 1.14 h. Also, in data set [1], the MRT inf worked out at 8.37 ± 2.39 h, the Cmax1 came to 316.73 ± 59.06 ng/mL, the Tmax1 is 0.19 ± 0.07 h and the Cmax2 worked out at 129.90 ± 77.04 ng/mL. Moreover, the Tmax2 in data set [1] was 7.67 ± 0.75 h. The “bimodal phenomenon of plasma concentration–time curve” value in data set [2] is reported as “bimodal phenomenon”.
For the compound `COc1ccc(-c2oc3c(CC=C(C)C)c(OC4OC(CO)C(O)C(O)C4O)cc(O)c3c(=O)c2OC2OC(C)C(O)C(O)C2OC2OC(C)C(O)C(O)C2O)cc1` (stereo not shown) [epimedin C], in data set [1], the AUC(0-inf) was 919 ± 215 ng·h/mL, the half-life is 17.9 ± 8.23 h, the AUC came out at 850 ± 269 ng·h/mL and the MRT came to 9.33 ± 2.34 h. In addition, in data set [1], the MRT inf stood at 12.5 ± 2.59 h, the Cmax1 worked out at 135.22 ± 31.26 ng/mL, the Tmax1 was 0.22 ± 0.04 h and the Cmax2 came to 103.20 ± 33.10 ng/mL. Besides, in data set [1], the Tmax2 turned out to be 7.67 ± 0.75 h.
As to `COc1ccc(-c2oc3c(CC=C(C)C)c(O[C@@H]4O[C@H](CO)[C@@H](O)[C@H](O)[C@H]4O)cc(O)c3c(=O)c2O[C@@H]2O[C@@H](C)[C@H](O)[C@@H](O)[C@H]2O)cc1` [icariin], in data set [1], the AUC(0-inf) came to 325 ± 209 ng·h/mL, the half-life was 0.41 ± 0.19 h, the AUC came to 323 ± 205 ng·h/mL and the MRT is 2.71 ± 0.79 h. In data set [1], the MRT inf came out at 2.75 ± 0.97 h, the Cmax1 turned out to be 350.28 ± 195.96 ng/mL and the Tmax1 stood at 0.16 ± 0.05 h.
For the compound `COc1ccc2c(c1O)-c1c(O)c(OC)cc3c1[C@H](C2)[N+](C)(C)CC3` [magnoflorine], in data set [1], the AUC(0-inf) was found to be 4000 ± 970 ng·h/mL, the half-life was 17.8 ± 8.25 h, the AUC came to 3680 ± 875 ng·h/mL and the MRT was 9.86 ± 0.75 h. Further, in data set [1], the MRT inf stood at 12.5 ± 1.72 h, the Cmax1 is on record as 411.40 ± 110.77 ng/mL, the Tmax1 came to 0.18 ± 0.03 h and the Cmax2 was 275.67 ± 89.36 ng/mL. The Tmax2 in data set [1] is 10.67 ± 1.63 h.
For the compound `O=C(/C=C/c1ccc(O)c(O)c1)O[C@@H]1C[C@@](O)(C(=O)O)C[C@@H](O)[C@@H]1O` [neochlorogenic acid], in data set [1], the AUC(0-inf) was determined as 269 ± 70.9 ng·h/mL, the half-life was 0.64 ± 0.27 h, the AUC turned out to be 264 ± 68.2 ng·h/mL and the MRT was determined as 3.18 ± 1.57 h. In data set [1], the MRT inf was found to be 3.25 ± 1.97 h, the Cmax1 is 205.96 ± 75.12 ng/mL and the Tmax1 is 0.19 ± 0.05 h.
As to `COc1ccc(-c2oc3c(CC=C(C)C)c(O)cc(O)c3c(=O)c2O[C@@H]2O[C@@H](C)[C@H](O)[C@@H](O)[C@H]2O[C@@H]2O[C@H](CO)[C@@H](O)[C@H](O)[C@H]2O)cc1` [sagittatoside A], in data set [1], the AUC(0-inf) was 1780 ± 352 ng·h/mL, the half-life is 13.8 ± 7.09 h, the AUC was 1610 ± 349 ng·h/mL and the MRT was determined as 12 ± 0.71 h. In data set [1], the MRT inf was 14.3 ± 2 h, the Cmax1 is recorded as 20.35 ± 10.26 ng/mL, the Tmax1 was found to be 0.18 ± 0.03 h and the Cmax2 was 203.50 ± 97.03 ng/mL. For the same compound, in data set [1], the Tmax2 is recorded as 11.67 ± 0.82 h.
For `COc1ccc(-c2oc3c(CC=C(C)C)c(O)cc(O)c3c(=O)c2OC2OC(C)C(O)C(O)C2OC2OCC(O)C(O)C2O)cc1` (stereo not shown) [sagittatoside B], in data set [1], the AUC(0-inf) came out at 1040 ± 202 ng·h/mL, the half-life is 9.38 ± 2.11 h, the AUC turned out to be 854 ± 171 ng·h/mL and the MRT worked out at 11.7 ± 1.17 h. Further, in data set [1], the MRT inf was determined as 14.9 ± 2.09 h, the Cmax1 was determined as 19.38 ± 9.79 ng/mL, the Tmax1 is given as 0.20 ± 0.04 h and the Cmax2 was 112.97 ± 44.50 ng/mL. Besides, the Tmax2 in data set [1] is recorded as 11.00 ± 1.67 h.

As a reminder, the AUC(0-inf) is total exposure, with the tail of the curve extrapolated. Lower therefore signals low exposure. By half-life is commonly meant how long it takes for the measured level to halve. A word on the AUC: it is concentration integrated over time. By MRT is commonly meant the average time that molecules of a dose stay in the body.
